The series in a line: Hygroscopicity / humidity stability of salts by Dynamic Vapour Sorption (DVS). The format is physicochemical. The following applies: solid salt.

5 compounds from patent US7728129B2, “Processes for the preparation of piperazinyl and diazapanyl benzamide derivatives” (Janssen Pharmaceutica NV, priority 2005, dated 2010) can be followed below.

SMILES strings stand for the structures. Where a name gives a salt, the structure may show the parent alone.

In the case of `CC(C)N1CCN(C(=O)c2ccc(CN3CCOCC3)cc2)CC1.O=C(O)/C=C\C(=O)O` [(4-Isopropyl-piperazin-1-yl)-(4-morpholin-4-ylmethyl-phenyl)-methanone Bis-maleate Salt], the “hygroscopicity by DVS” value is reported as “hygroscopic”.
With `CC(C)N1CCN(C(=O)c2ccc(CN3CCOCC3)cc2)CC1.O=C(O)/C=C/C(=O)O` [(4-Isopropyl-piperazin-1-yl)-(4-morpholin-4-ylmethyl-phenyl)-methanone Mono-fumarate Salt], the “relative humidity up to which the salt is stable, by DVS” value is “up to 70%”.
Consider `CC(C)N1CCN(C(=O)c2ccc(CN3CCOCC3)cc2)CC1` [(4-Isopropyl-piperazin-1-yl)-(4-morpholin-4-ylmethyl-phenyl)-methanone Mono-succinate Salt], for which the “hygroscopicity by DVS” value (Mono-succinate Salt) is listed as “non-hygroscopic”.
Turning to `CC(C)N1CCN(C(=O)c2ccc(CN3CCOCC3)cc2)CC1` [(4-Isopropyl-piperazin-1-yl)-(4-morpholin-4-ylmethyl-phenyl)-methanone, dihydrobromide semi-hydrate salt], the “relative humidity above which the salt is hygroscopic, by DVS” value was “above 10 % RH”.
As for `CC(C)N1CCN(C(=O)c2ccc(CN3CCOCC3)cc2)CC1` [(4-Isopropyl-piperazin-1-yl)-(4-morpholin-4-ylmethyl-phenyl)-methanone, dihydrochloride monohydrate salt], the “hygroscopicity by DVS” value is “hygroscopic”.
